Patent USRE44971E1, “Method for selection of transformed cells” (priority 2006, dated 2014)

Legend:
[1] = tested on: non-transgenic soybean plants; assay: Greenhouse post-V3 spray of auxin-like herbicides, visual injury, non-transgenic line; type: in vivo
Protocol: (§1) An analysis was carried out to determine whether soybean plants having DMO-encoding polynucleotide could deactivate other auxin-like herbicides in addition to dicamba. This was carried out by applying various concentrations of commercially available formulations of other auxin-like herbicides such as 2,4-D (Helena, Collierville, Tenn.), MCPA (Agriliance, St. Paul, Minn.), triclopyr (GARLON 3A; Dow Elanco, Indianapolis, Ind.), clopyralid (STINGER; Dow Elanco, Indianapolis, Ind.), picloram (TORDON 22K; Dow Elanco, Indianapolis, Ind.), or Banvel or Clarity (BASF, Raleigh, N.C.) to DMO containing plant tissues or plants.
(§2) Transgenic soybean plants were obtained by Agrobacterium-mediated transformation of soybean explants with a DMO-encoding polynucleotide as described above for the events designated Events 1-4. A non-transgenic line was used as a control. Non-transgenic and transgenic soybean seeds were planted into 3,5-inch square plastic pots containing Redi-earth™ (Scotts-Sierra Horticultural Products Co., Marysville, Ohio). The pots were placed on capillary matting in 35 inch×60 inch fiberglass watering trays for overhead and/or sub-irrigation for the duration of the test period so as to maintain optimum soil moisture for plant growth. The pots were fertilized with Osmocote (14-14-14 slow release; Scotts-Sierra Horticultural Products Co., Marysville, Ohio) at the rate of 100 gm/cu.ft. to sustain plant growth for the duration of greenhouse trials. The plants were grown in greenhouses at 27°/21° C. day/night temperature, with relative humidity between 25%-75% to simulate warm season growing conditions of late spring. A 14 h minimum photoperiod was provided with supplemental light at about 600 μE as needed.
(§3) All herbicide applications were made with the track sprayer using a Teejet 9501E flat fan nozzle (Spraying Systems Co, Wheaton, Ill.) with air pressure set at a minimum of 24 psi (165 kpa). The spray nozzle was kept at a height of about 16 inches above the top of plant material for spraying. The spray volume was 10 gallons per acre or 93 liters per hectare. Applications were made when plants had reached V-3 stage.
(§4) All treated plants in greenhouse trials were visually assessed at about 4, 14, 18, and 21 days after treatment (DAT) for injury on a scale of 0 to 100 percent relative to untreated control plants, with zero representing “no” injury and 100% representing “complete” injury or death. Data were collected using a palm top computer and analyzed using standard statistical methods.

[2] = tested on: transgenic soybean plants with DMO-encoding polynucleotide, Event 1; assay: Greenhouse post-V3 spray of auxin-like herbicides, visual injury, transgenic Event 1; type: in vivo
Protocol: as §1, §2, §3, §4

[3] = tested on: transgenic soybean plants with DMO-encoding polynucleotide, Event 2; assay: Greenhouse post-V3 spray of auxin-like herbicides, visual injury, transgenic Event 2; type: in vivo
Protocol: as §1, §2, §3, §4

[4] = tested on: transgenic soybean plants with DMO-encoding polynucleotide, Event 3; assay: Greenhouse post-V3 spray of auxin-like herbicides, visual injury, transgenic Event 3; type: in vivo
Protocol: as §1, §2, §3, §4

[5] = tested on: transgenic soybean plants with DMO-encoding polynucleotide, Event 4; assay: Greenhouse post-V3 spray of auxin-like herbicides, visual injury, transgenic Event 4; type: in vivo
Protocol: as §1, §2, §3, §4

[6] = tested on: transgenic soybean plants having DMO-encoding polynucleotide; assay: Greenhouse injury trial, overall statements for transgenic soybean; type: in vivo; settings: for assessment of application rate: 280 g ae/ha, transgenic soybean; for tolerance of transgenic soybean relative to the non-transgenic line: greenhouse trial, post-V3 application
Protocol: as §1, §2, §3, §4

[7] = tested on: soybean explants inoculated with Agrobacterium harboring pMON73691 (DMO and GFP genes); assay: Selection of pMON73691-inoculated soybean explants with 2,4-D or dicamba in liquid medium, GFP+ buds; type: cell-based; settings: for # Explants w/GFP + buds/young shoots at 48DAI: 375 explants inoculated, pMON73691
Protocol: Freshly isolated soybean explants (mature embryo axes without cotyledons) were inoculated with Agrobacterium strain ABI harboring pMON73691 (containing DMO and GFP genes). After 3-d co-culture with Agrobacterium at 23° C. and a photoperiod of 16-h light and 8-h dark, the explants were cultured in liquid delay medium which contained modified woody plant medium supplemented with 5 mg/l BAP, 200 mg/l carbenicillin, 200 mg/l cefotaxime and 100 mg/l ticarcillin. The explants were in the delay medium for 4 days. They were then transferred to liquid selection medium in PLANTCONs. The selection medium was the same as the delay medium except of addition of various levels of 2,4-D (0.01, 0.1, 1.0 or 2.0 mg/L) or 0.01 mg/L dicamba as shown in Table 9 below. Each PLANTCON contained 60 ml of the selection medium and one piece of foam sponge with 5 slits. Twenty-five explants were evenly inserted into the slits. The cultures were maintained at 28° C. and a photoperiod of 16-h light and 8-h dark, and were examined periodically under a […] equipped for detecting GFP expressing tissues.

| Compound | % injury relative to un-treated controls ([1]; 280 g ae/ha, 14 DAT) [%] | % injury relative to un-treated controls ([1]; 561 g ae/ha, 14 DAT) [%] | % injury relative to un-treated controls ([1]; 1120 g ae/ha, 14 DAT) [%] | % injury relative to un-treated controls ([2]; 280 g ae/ha, 14 DAT) [%] | % injury relative to un-treated controls ([2]; 561 g ae/ha, 14 DAT) [%] | % injury relative to un-treated controls ([2]; 1120 g ae/ha, 14 DAT) [%] | % injury relative to un-treated controls ([3]; 280 g ae/ha, 14 DAT) [%] | % injury relative to un-treated controls ([3]; 561 g ae/ha, 14 DAT) [%] | % injury relative to un-treated controls ([3]; 1120 g ae/ha, 14 DAT) [%] | % injury relative to un-treated controls ([4]; 280 g ae/ha, 14 DAT) [%] | % injury relative to un-treated controls ([4]; 561 g ae/ha, 14 DAT) [%] | % injury relative to un-treated controls ([4]; 1120 g ae/ha, 14 DAT) [%] | % injury relative to un-treated controls ([5]; 280 g ae/ha, 14 DAT) [%] | % injury relative to un-treated controls ([5]; 561 g ae/ha, 14 DAT) [%] | % injury relative to un-treated controls ([5]; 1120 g ae/ha, 14 DAT) [%] | assessment of application rate [6] | % injury relative to un-treated controls ([1]; 280 g ae/ha, 21 DAT) [%] | % injury relative to un-treated controls ([1]; 561 g ae/ha, 21 DAT) [%] | % injury relative to un-treated controls ([1]; 1120 g ae/ha, 21 DAT) [%] | % injury relative to un-treated controls ([2]; 280 g ae/ha, 21 DAT) [%] | also measured |
| --- | --- | --- | --- | --- | --- | --- | --- | --- | --- | --- | --- | --- | --- | --- | --- | --- | --- | --- | --- | --- | --- |
| (2,4,5-trichlorophenoxy)acetic acid [Triclopyr] | 86.7 | 97.3 | 98.7 | 88.3 | 95.7 | 99.3 | 86.7 | 98.7 | 99.3 | 86.7 | 94.0 | 96.3 | 90.8 | 98.0 | 99.2 | too stringent |  |  |  |  |  |
| O=C(O)COc1ccc(Cl)cc1Cl [2,4-D, (2,4-dichlorophenoxy)acetic acid] |  |  |  |  |  |  |  |  |  |  |  |  |  |  |  |  | 86.8 | 100.0 | 100.0 | 58.3 | % injury relative to un-treated controls ([2]; 561 g ae/ha, 21 DAT): 75.0%; % injury relative to un-treated controls ([2]; 1120 g ae/ha, 21 DAT): 100.0%; % injury relative to un-treated controls ([3]; 280 g ae/ha, 21 DAT): 64.2%; % injury relative to un-treated controls ([3]; 561 g ae/ha, 21 DAT): 94.7%; % injury relative to un-treated controls ([3]; 1120 g ae/ha, 21 DAT): 100.0%; % injury relative to un-treated controls ([4]; 280 g ae/ha, 21 DAT): 40.0%; % injury relative to un-treated controls ([4]; 561 g ae/ha, 21 DAT): 85.0%; % injury relative to un-treated controls ([4]; 1120 g ae/ha, 21 DAT): 100.0%; % injury relative to un-treated controls ([5]; 280 g ae/ha, 21 DAT): 45.8%; % injury relative to un-treated controls ([5]; 561 g ae/ha, 21 DAT): 84.2%; % injury relative to un-treated controls ([5]; 1120 g ae/ha, 21 DAT): 100.0%; explant response observed ([7]; 0.01 or 0.1 mg/L in selection medium): extensive shoot growth; explant response observed ([7]; 1 or 2 mg/L in selection medium): Extensive callus development; # Explants w/GFP + buds/young shoots at 48DAI ([7]; selective agent 0.01 mg/L): 33; # Explants w/GFP + buds/young shoots at 48DAI ([7]; selective agent 0.1 mg/L): 19; # Explants w/GFP + buds/young shoots at 48DAI ([7]; selective agent 1 mg/L): 4; # Explants w/GFP + buds/young shoots at 48DAI ([7]; selective agent 2 mg/L): 0; tolerance of transgenic soybean relative to the non-transgenic line [6]: tolerance |
| Nc1c(Cl)c(Cl)nc(C(=O)O)c1Cl [Picloram, 4-amino-3,5,6-trichloro-2-pyridinecarboxylic acid] | 99.3 | 100.0 | 100.0 | 99.7 | 100.0 | 100.0 | 99.3 | 100.0 | 100.0 | 99.3 | 99.7 | 100.0 | 99.3 | 100.0 | 100.0 | too stringent |  |  |  |  |  |
| O=C(O)c1nc(Cl)ccc1Cl [Clopyralid, 3,6-dichloro-2-pyridinecarboxylic acid] | 99.3 | 100.0 | 100.0 | 99.2 | 100.0 | 100.0 | 98.2 | 99.7 | 100.0 | 99.3 | 100.0 | 100.0 | 99.7 | 100.0 | 100.0 | too stringent |  |  |  |  |  |
| Cc1cc(Cl)ccc1OCC(=O)O [MCPA, (4-chloro-2-methylphenoxy)acetic acid] |  |  |  |  |  |  |  |  |  |  |  |  |  |  |  |  | 93.0 | 98.3 | 100.0 | 72.5 | % injury relative to un-treated controls ([2]; 561 g ae/ha, 21 DAT): 99.3%; % injury relative to un-treated controls ([2]; 1120 g ae/ha, 21 DAT): 100.0%; % injury relative to un-treated controls ([3]; 280 g ae/ha, 21 DAT): 55.0%; % injury relative to un-treated controls ([3]; 561 g ae/ha, 21 DAT): 95.0%; % injury relative to un-treated controls ([3]; 1120 g ae/ha, 21 DAT): 99.7%; % injury relative to un-treated controls ([4]; 280 g ae/ha, 21 DAT): 55.0%; % injury relative to un-treated controls ([4]; 561 g ae/ha, 21 DAT): 95.8%; % injury relative to un-treated controls ([4]; 1120 g ae/ha, 21 DAT): 100.0%; % injury relative to un-treated controls ([5]; 280 g ae/ha, 21 DAT): 88.3%; % injury relative to un-treated controls ([5]; 561 g ae/ha, 21 DAT): 98.8%; % injury relative to un-treated controls ([5]; 1120 g ae/ha, 21 DAT): 100.0%; tolerance of transgenic soybean relative to the non-transgenic line [6]: tolerance |
